# Results taken from patent US20200030236A1, “BIOPATCH, BIOHEATER, BIOSENSOR AND BIOELECTRONIC PATCH DEVICE” (SEOUL NATIONAL UNIVERSITY R&DB FOUNDATION, priority 2016, published 2020).
# Tested on: brain tumors
# Assay: Size change in brain tumor and survival rate in rats having brain tumors
# Type: in vivo
# Details: (a) drug injected by intravenous injection, rats (FIGS. 27, 28)
# Excerpt: FIGS. 27 to 29 show the result of comparing the size change in brain tumor and the survival rate according to four treatment methods applied to rats having brain tumors.
smiles,measurement,value
"COc1cccc2c1C(=O)c1c(O)c3c(c(O)c1C2=O)C[C@@](O)(C(=O)CO)C[C@@H]3O[C@H]1C[C@H](N)[C@H](O)[C@H](C)O1 [drug, doxorubicin]",size change in brain tumor,rapidly increases with time
